Test [1] has as its target PptH (Rv2795c) (Mycobacterium tuberculosis, UniProt I6YEE1). The experiment in a line: biochemical.
For test [2], the target named is T1, Sfp (Bacillus subtilis, UniProt P39135).
T1 sequence (P39135 1-224): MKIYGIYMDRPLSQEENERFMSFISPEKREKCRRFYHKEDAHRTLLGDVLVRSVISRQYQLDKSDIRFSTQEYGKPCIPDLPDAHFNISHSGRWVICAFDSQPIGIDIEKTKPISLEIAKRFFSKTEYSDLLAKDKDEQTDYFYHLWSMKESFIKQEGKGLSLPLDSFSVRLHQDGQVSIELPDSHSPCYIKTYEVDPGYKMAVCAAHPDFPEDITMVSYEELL
The test can be described thus: transfer of biotin-labelled Ppt to apo-carrier protein, streptavidin blot. The note with it: labelled compound; co-substrate apo-AcpM (also PKS13 ACP, EcEntB, EcACP, KpACP, PaACP); 50 mM Tris-HCl pH 7.5, 15 mM MgCl2, 37°C. The test is classed as biochemical.

pIC50: −log10 of the molar value.

Chain of PptH (Rv2795c) (I6YEE1 1-310): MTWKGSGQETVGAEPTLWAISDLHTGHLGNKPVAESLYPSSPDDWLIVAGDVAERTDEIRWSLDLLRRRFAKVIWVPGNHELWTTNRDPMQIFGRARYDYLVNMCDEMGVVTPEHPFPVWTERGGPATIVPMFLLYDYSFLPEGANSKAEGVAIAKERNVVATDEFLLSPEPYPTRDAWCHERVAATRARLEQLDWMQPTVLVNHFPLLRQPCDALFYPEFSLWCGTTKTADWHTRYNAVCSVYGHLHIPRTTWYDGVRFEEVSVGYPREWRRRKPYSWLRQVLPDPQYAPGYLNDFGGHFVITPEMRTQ

Take `Nc1ncnc2c1ncn2[C@@H]1O[C@H](COP(=O)(O)O)[C@@H](O)[C@H]1O` [AMP]: the pIC50 in test [1] was 3.34.

In the case of `CC(C)(COP(=O)(O)OP(=O)(O)OC[C@H]1O[C@@H](n2cnc3c(N)ncnc32)[C@H](O)[C@@H]1OP(=O)(O)O)[C@@H](O)C(=O)NCCC(=O)NCCSCC(=O)NCCOCCOCCNC(=O)CCCC[C@@H]1SC[C@@H]2NC(=O)N[C@@H]21` [biotin-PEG-ACM-CoA], the “transfer of biotin-labelled Ppt to apo-carrier protein, streptavidin blot” value in test [2] is “Upon incubation of the *CoA probe with apo-AcpM and Sfp”.

Source of the values: article PMC8557913, “Characterization of Phosphopantetheinyl Hydrolase from Mycobacterium tuberculosis” (Microbiology Spectrum, 2021).
